Source: patent US10722492B2, “Andrographolide treats progressive forms of multiple sclerosis” (INNOBIOSCIENCES, LLC, priority 2016, dated 2020)
Read-outs that look alike come from different tables or passages of the source.

How the values were obtained:
SP & PPMS forms = details: summary of prior art; cited from earlier work
SPMS and PPMS patients = details: cited from earlier work
patients with PPMS = details: 95% confidence interval 0.71-1.07; p=0.1753; non-significant delay; cited from earlier work
MS participants = details: cited from earlier work
[1] = tested on: patients with worsening RRMS or SPMS with relapses; details: 24 months, 95% CI 0.17-0.44; p<0.001; cited from earlier work
[2] = tested on: patients with RRMS, PRMS and SPMS with relapses; details: 2 years follow-up, p=0.05; cited from earlier work
[3] = tested on: subjects with Secondary progressive MS with relapses; details: vs placebo; cited from earlier work
[4] = tested on: patients with Secondary progressive MS; details: cited from earlier work
[5] = tested on: patients with all clinical forms of MS; details: cited from earlier work
progressive MS patients = details: cited from earlier work
[6] = tested on: MOG-immunized C57BL/6J mice (EAE); assay: EAE therapeutic treatment from chronic phase (day 15 post-immunization); assay type: in vivo
Procedure: […] […] As controls MOG-immunized C57BL/6J mice were injected with vehicle (PBS) daily. At day 21 p.i. mice were sacrificed. MOG-immunized mice treated with either PBS (A-C) or AG (B-D) were perfussed and 4% p-formaldehyde fixed. Toraxic spinal cords sections were dissected and analyzed for inflammatory infiltrate by hematoxylin-eosin staining (H&E) and for demyelination with luxol fast blue staining (LFB). Insets show higher magnification (20×).

EAE model = details: prophylactic administration; cited from earlier work
[7] = tested on: patients with progressive forms of Multiple Sclerosis; assay: Controlled, randomized, double-blinded human clinical trial of andrographolide; assay type: in vivo
Procedure: We have tested andrographolide in a controlled, randomized, double-blinded human clinical trial of andrographolide 140 mg orally administered twice per day (i.e., 280 mg per day) in patients with progressive forms of Multiple Sclerosis. The principle objective of that study was to determine efficacy, safety and tolerability of andrographolide in retarding the progression of brain atrophy. Secondary end-points included: delay in the disability capacity progression through the Expanded Disability Status Scale (EDSS) and Multiple Sclerosis Funcitonal Composite (MSFC) at 24 months compared to the baseline; delay in cognitive impairment by means of Paced Auditory Serial Addition Test (PASAT), Symbol Digit Modalities Test (SDMT) and depression (Beck) at 24 months compared to the baseline; quality of life Multiple Sclerosis Impact Scale (MSIS 29) and fatigue (Krupp) through parameters reported by the patients at 24 months compared to the baseline; Tolerability of andrographolide measured by Magnetic Resonance (MR) at 24 months compared to baseline; Number and volume of new lesions or larger size in T2 by MR at 24 months compared to the baseline; Number of new hipointense lesions in T1 or (gadolinium captive) by MR at 24 months compared to baseline; Delay in the retinal thinning measured by Optical Coherence Tomography (OCT) and visual field at 24 months compared to the baseline; and Safety of andrographolide at 24 months through the record of adverse effects in symptom diary and programmed interviews. The details of the study are described more completely in U.S. Provisional patent application Ser. No. 62/347,218 (filed 8 Jun. 2016), incorporated here by reference.
The numbers (x axis) on the figure are measurements 6: corresponds to 2 year treatment. There are still many patients that need to complete the 2 year treatment. The data therefore show a lot of variance. […] The 9-HPT is a brief, standardized, quantitative test of upper extremity function. It is the second component of the MSFC to be administered at each visit. Both the dominant and non-dominant hands are tested twice. The patient is seated at a table with a small, shallow container holding nine pegs and a wood or plastic block containing nine empty holes. On a start command when a stopwatch is started, the patient picks up the nine pegs one at a time as quickly as possible, puts them in the nine holes, and, once they are in the holes, removes them again as quickly as possible one at a time, replacing them into the shallow container. The total time to complete the task is recorded. Two consecutive trials with the dominant hand are immediately followed by two consecutive trials with the non-dominant hand.
There are 3 components of the Multiple Sclerosis Functional Composite (MSFC) disease activity index: function of the legs, function of the arms and cognitive function. The corresponding tests are a 25 feet (7.6 m) walk; test of 9 holes and pin and the Paced Auditory Serial Addition test 3 (PASAT3). Multiple attempts will be made of each test in each visit. The MSFC score and the scores of the 3 sub-scales and the change from the basal values will be recorded in each visit
One measure of progressive MS disease severity is the Expanded Disability Status Scale (EDSS). EDSS is a scale to determine the neurological disability in MS and is used to confirm progression of the disease. It consists of a system of two parts. The first part measures eight functional systems (FS). The second part measures disability on a scale of […], zero being no disability and 10 being death due to MS.
The Nine Hole Pin Test (9HPT) is a component of the MS Functional Composite (MSFC) score. 9HPT is a timed test measuring the time (seconds) required to insert each of nine pins into nine holes in a plank. The test is done on each of the right and left arms. The test measures eye-hand coordination and fine muscle control. […]

[8] = many clinical studies; cited from earlier work
microglia = details: cited from earlier work
dendritic cells = details: mice model; cited from earlier work
[9] = tested on: Jurkat cell line (lymphom of T cells); details: through inhibition of NFAT and MAPK-Erk 1/2; cited from earlier work
PPMS patients = details: cited from earlier work
[10] = tested on: Lymph node cell suspensions obtained from C57BL/6 and BALB/c mice; assay: Lymph node cell co-culture, IL-2 release (ELISA) and T cell proliferation (Cell Titer); assay type: cell-based; details: increasing concentrations, 72 h, FIG. 1A
Procedure: (§1) (A) Lymph node cell suspensions obtained from C57BL/6 and BALB/c mice were co-cultured with increasing concentrations of IB-MS for 72 h. After this time, supernatants were harvested and analyzed for IL-2 release by ELISA assay (circles) and T cell proliferation (squares) was determined by Cell Titer assay. (B) Mice treated with vehicle (solid circles) or andrographolide (empty circles) were MOG-immunized one week later and clinical score determined daily.

MOG-immunized mice (EAE) = assay: EAE prevention: treatment before MOG immunization, daily clinical score; assay type: in vivo; details: MOG-immunized one week after treatment, FIG. 1B
Procedure: as §1

[11] = 4 mg/kg daily, day 15 to day 20 post-immunization, FIG. 3
[12] = twelve months of treatment, FIG. 7

Compound: Glatiramer Acetate
- slowing down / reduction of disability progression in progressive MS (SP & PPMS forms): failed to demonstrate efficacy
- local injection-site reactions (SPMS and PPMS patients; in vivo): up to a half of patients
- major toxicity (SPMS and PPMS patients; in vivo): No major toxicity
- benefit in SPMS and PPMS patients (SPMS and PPMS patients; meta-analysis): No benefit
- time to sustained accumulated disability (hazard ratio) (patients with PPMS): 0.87

Compound: O=P1(N(CCCl)CCCl)NCCCO1 (stereo not drawn) [cyclophosphamide, Cyclophosphamide]
- long-term clinical disability progression (evolution to a next step of EDSS score) (MS participants; 12, 18, 24 months): did not prevent
- mean change in disability (effect size) (MS participants; 12 months, 95% confidence interval −0.25 to −0.17): −0.21
- mean change in disability (effect size) (MS participants; 18 months, 95% confidence interval −0.24 to −0.14): −0,19
- mean change in disability (effect size) (MS participants; 24 months, CI 0.07 to 0.21, favoured the control group): 0.14
- slowing down / reduction of disability progression in progressive MS (SP & PPMS forms): do not show a reduction in the progression of disability

Compound: O=C1c2c(O)ccc(O)c2C(=O)c2c(NCCNCCO)ccc(NCCNCCO)c21 [mitoxantrone, Mitoxantrone]
- different clinical measures (difference vs placebo) [1]: 0.3
- slowing down / reduction of disability progression in progressive MS (SP & PPMS forms): do not show a reduction in the progression of disability
- proportion of patients with 6-months confirmed progression of disability (Odds Ratios) [2]: 0.3

Compound: Interferon beta-1b [IFNB-1b]
- relapse and MRI-related outcomes [3]: significant benefit
- time to confirmed progression of disability [3]: no treatment benefit
- time to confirmed 1.0 point progression on the Expanded Disability Status Scale (EDSS) ([4]; p=0.007): delayed
- progression of 2.0 EDSS point, lower ([4]; vs placebo): 27%
- slowing down / reduction of disability progression in progressive MS (SP & PPMS forms): failed to demonstrate efficacy

Compound: Cn1cnc([N+](=O)[O-])c1Sc1ncnc2nc[nH]c12 [azathioprine, Azathioprine]
- number of patients who had relapses, relative risk reduction [RRR] ([5]; first year of treatment, 95% CI=5% to 33%): 20%
- number of patients who had relapses, relative risk reduction [RRR] ([5]; three years follow-up, 95% CI=7% to 27%): 18%
- number of patients who progressed, RRR ([5]; three years' follow-up, 95% CI=7% to 64%, 87 patients): 42%
- number of patients who had relapses, relative risk reduction [RRR] ([5]; two years, 95% CI=12% to 33%): 23%
- slowing down / reduction of disability progression in progressive MS (SP & PPMS forms): do not show a reduction in the progression of disability

Compound: CN(Cc1cnc2nc(N)nc(N)c2n1)c1ccc(C(=O)N[C@@H](CCC(=O)O)C(=O)O)cc1 [methotrexate, Methotrexate]
- major side effects (progressive MS patients; in vivo): no major side effects
- minor side effects reported (progressive MS patients; placebo 89.7%): 87.1%
- sustained EDSS progression and number of relapses (progressive MS patients; vs placebo): non-significant reduction
- time to first relapse (progressive MS patients; vs placebo): no difference in time to first relapse
- slowing down / reduction of disability progression in progressive MS (SP & PPMS forms): do not show a reduction in the progression of disability

Compound: C=C1CC[C@@H]2[C@](C)(CO)[C@H](O)CC[C@@]2(C)[C@@H]1C/C=C1/C(=O)OC[C@H]1O [andrographolide, Andrographolide]
- demyelination in spinal cord (LFB) [6, 11]: reduced
- inflammatory infiltrate in spinal cord (H&E) [6, 11]: reduced
- development of EAE (EAE model): prevents the development Of EAE
- efficacy, interim results ([7]; 12 months of treatment): statistically-significant efficacy
- Expanded Disability Status Scale (EDSS) ([7]; 12 months of treatment vs placebo, FIG. 6): an improvement viz placebo which becomes statistically-significant by nine months
- MSIS 29 scale scores ([7]; preliminary, 2 years vs day 0, FIG. 11): maintain or slightly improve their scores
- MSIS 29 scale ([7]; treatment group (a), after 2 years, from 80 at day 0, FIG. 11): 90 percentage
- Nine Hole Pin Test, left hand (9HPT-L), time to complete [7, 12]: the improvement becomes statistically significant almost immediately
- Nine Hole Pin Test, right hand (9HPT-R), time to complete [7, 12]: improvement becomes statistically significant by twelve months of treatment
- 9-HPT (upper extremity function) ([7]; up to 2 year treatment, FIG. 10): the treated patients are more skilled and more quickly complete the task
- 25-Feet Walk Test (25 FWT), time to complete ([7]; vs placebo, twelve months, preliminary data, FIG. 8): improvement becomes statistically significant immediately on commencement of treatment
- tolerability and safety [8]: well tolerated and safe
- reactive oxygen species, TNF-α, nitric oxide and prostaglandins E2 (microglia): reduces
- maturation of dendritic cells and capacity to present antigens to T cells (dendritic cells): decreases
- process of activation of Jurkat cell line [9]: decreases

Compound: Rituximab
- increase in T2 lesion volume (PPMS patients; baseline to week 96, p<0.001): less
- brain volume change (PPMS patients; baseline to week 96, p=0.62): similar
- confirmed disease progression, 96-week rate (PPMS patients; placebo 38.5%, p=0.14, not significant): 30.2%
- adverse events (PPMS patients; vs placebo): comparable between groups

Compound: Andrographolide
- effect in EAE ([6]; 4 mg/kg every second day, day 15 to day 30 post-immunization, FIG. 2): has a therapeutic effect in EAE
- T cell activation (IL-2 release, T cell proliferation) [10]: interferes with T cell activation
- EAE clinical score (MOG-immunized mice (EAE)): prevents EAE

Compound: natalizumab
- slowing down / reduction of disability progression in progressive MS (SP & PPMS forms): no effect on the progressive forms
